Experimental data from the supplement of paper PMC13380429.

Assays:
Settings in all cases: 72 h
Caco-2 [1] = experiment: cell viability relative to DMSO; higher = less toxic
Calu-3 [2] = experiment: as above
HepG2 [3] = experiment: as above
U2OS [4] = experiment: as above
Vero E6 [5] = experiment: as above
Caco-2 [6] = experiment: relative viability EC50 (midpoint between 100% and the lowest measured viability); higher = less toxic
HepG2 [7] = experiment: as above
U2OS [8] = experiment: as above
Caco-2 [9] = experiment: drug sensitivity score (DSS) for viability; higher = more toxic; extreme values may be limits of the assay
Calu-3 [10] = experiment: as above
HepG2 [11] = experiment: as above
U2OS [12] = experiment: as above
Vero E6 [13] = experiment: as above
Calu-3 [14] = experiment: relative viability EC50 (midpoint between 100% and the lowest measured viability); higher = less toxic
Vero E6 [15] = experiment: as above

| SMILES | cell viability (Caco-2 [1]; 1 nM) | cell viability (Caco-2 [1]; 10 nM) | cell viability (Caco-2 [1]; 100 nM) | cell viability (Caco-2 [1]; 1000 nM) | cell viability (Caco-2 [1]; 10000 nM) | cell viability (Calu-3 [2]; 1 nM) | cell viability (Calu-3 [2]; 10 nM) | cell viability (Calu-3 [2]; 100 nM) | cell viability (Calu-3 [2]; 1000 nM) | cell viability (Calu-3 [2]; 10000 nM) | cell viability (HepG2 [3]; 1 nM) | cell viability (HepG2 [3]; 10 nM) | cell viability (HepG2 [3]; 100 nM) | cell viability (HepG2 [3]; 1000 nM) | cell viability (HepG2 [3]; 10000 nM) | cell viability (U2OS [4]; 1 nM) | cell viability (U2OS [4]; 10 nM) | cell viability (U2OS [4]; 100 nM) | cell viability (U2OS [4]; 1000 nM) | cell viability (U2OS [4]; 10000 nM) | cell viability (Vero E6 [5]; 1 nM) | cell viability (Vero E6 [5]; 10 nM) | cell viability (Vero E6 [5]; 100 nM) | cell viability (Vero E6 [5]; 1000 nM) | cell viability (Vero E6 [5]; 10000 nM) | relative viability EC50 (Caco-2 [6]) | relative viability EC50 (HepG2 [7]) | relative viability EC50 (U2OS [8]) | drug sensitivity score (Caco-2 [9]) | drug sensitivity score (Calu-3 [10]) | drug sensitivity score (HepG2 [11]) | drug sensitivity score (U2OS [12]) | drug sensitivity score (Vero E6 [13]) | relative viability EC50 (Calu-3 [14]) | relative viability EC50 (Vero E6 [15]) |
| --- | --- | --- | --- | --- | --- | --- | --- | --- | --- | --- | --- | --- | --- | --- | --- | --- | --- | --- | --- | --- | --- | --- | --- | --- | --- | --- | --- | --- | --- | --- | --- | --- | --- | --- | --- |
| Cc1cc(C)c(Nc2ccnc(Nc3ccc(C#N)cc3)n2)c(C)c1 [dapivirine] | 104% | 94.5% | 99.3% | 86% | 47.8% | 108% | 100% | 97.1% | 100% | 74.4% | 107% | 120% | 95.4% | 103% | 17.3% | 97.7% | 100% | 101% | 99% | 40.3% | 93.7% | 101% | 92.9% | 94.7% | 61.5% | 1.49 µM | 3.38 µM | 3.05 µM | 4.9 | 1 | 4.3 | 3.4 | 2.8 |  |  |
| N#C/C(=C\c1ccc(O)cc1)C(=O)O [CHC] | 108% | 98.5% | 102% | 87.6% | 102% |  |  |  |  |  | 106% | 99% | 102% | 98% | 98.8% | 101% | 93.4% | 97.6% | 98.6% | 99.7% |  |  |  |  |  | > 10 µM | > 10 µM | > 10 µM | 0 |  | 0 | 0 |  |  |  |
| C[C@]12CCC(=O)C=C1CC[C@@H]1[C@@H]2CC[C@@]2(C)[C@H]1CC[C@]2(O)C(=O)CO [cortodoxone] | 89.6% | 95.5% | 100% | 86.5% | 103% | 106% | 91% | 95.2% | 97.8% | 104% |  |  |  |  |  | 92.9% | 95.2% | 96.6% | 99.6% | 98.7% | 108% | 108% | 105% | 97.6% | 96.8% | > 10 µM |  | > 10 µM | 0 | 0 |  | 0 | 0 | > 10 µM | > 10 µM |
| C=C[C@]1(C)C[C@@H](OC(=O)CS[C@@H]2C[C@H]3CC[C@@H](C2)N3C)[C@]2(C)[C@H](C)CC[C@]3(CCC(=O)[C@H]32)[C@@H](C)[C@@H]1O [retapamulin] | 94.7% | 98.2% | 112% | 92.8% | 98.8% | 107% | 98.5% | 104% | 98.2% | 97.8% | 96.9% | 101% | 89.4% | 85.9% | 74% | 103% | 98.4% | 102% | 101% | 99.1% | 94.9% | 101% | 90.4% | 93.9% | 91.5% | > 10 µM |  | > 10 µM | 0 | 0 | 2.6 | 0 | 0 | > 10 µM | > 10 µM |
| Nc1sc2c(c1C(=O)c1ccc(Cl)cc1)CCCC2 [T-62] | 93.7% | 99.3% | 88.8% | 92.4% | 90.8% |  |  |  |  |  | 105% | 98% | 103% | 101% | 107% | 98.5% | 101% | 100% | 101% | 98% |  |  |  |  |  | > 10 µM | > 10 µM | > 10 µM | 0 |  | 0 | 0 |  |  |  |
| CC(=O)SC[C@@H](C)C(=O)N1CCC[C@H]1C(=O)N[C@@H](Cc1ccccc1)C(=O)O [alacepril] | 102% | 101% | 94.7% | 108% | 104% | 106% | 108% | 96.9% | 103% | 99.4% |  |  |  |  |  |  |  |  |  |  | 98.3% | 101% | 93% | 98.8% | 99.4% | > 10 µM |  |  | 0 | 0 |  |  | 0 | > 10 µM | > 10 µM |
| CCC1(c2ccc(N)cc2)CCC(=O)NC1=O (stereo not given) [aminoglutethimide] | 109% | 97.2% | 105% | 112% | 111% | 112% | 95.6% | 103% | 93.2% | 102% | 90.7% | 96% | 85.3% | 77.2% | 71.8% | 102% | 105% | 105% | 101% | 98.6% | 97.6% | 101% | 91.3% | 86.9% | 100% | > 10 µM |  | > 10 µM | 0 | 0 | 4.8 | 0 | 0 | > 10 µM | > 10 µM |
| Nc1nc(=O)n([C@H]2C[C@H](O)[C@@H](CO)O2)cc1F [fdcyd] | 93.4% | 106% | 94.9% | 113% | 86.1% | 85.1% | 108% | 84.1% | 85.5% | 68.3% | 117% | 89.8% | 60.1% | 55.2% | 49.8% | 102% | 106% | 95.8% | 104% | 86.2% | 99.3% | 105% | 90.7% | 66.4% | 54.9% | > 10 µM | 0.0346 µM | > 10 µM | 0.1 | 3.4 | 14.8 | 0.1 | 7 |  |  |
